Consider 1 compound from US20040186166A1, “Cannabinoid analogs as peroxisome proliferator activated nuclear receptor gamma activators” (priority 2002, published 2004).

Series [1] concerns the target T1, PPARγ / GST-DRIP205 (amino acids 527-970) (Mus musculus, UniProt P37238).
T1 construct: made in house; host or cells: PPARγ1: reticulocyte lysate; GST-DRIP205: E. coli BL21, kept on glutathione-Sepharose beads
Description: GST pull-down assay, PPARγ with GST-DRIP205. Particulars: 20 μM AJA. In kind it is binding. As for the experimental part:
The glutathione S-transferase (GST)-DRIP205 (amino acid 527-970) and GST-RAC3 RID (amino acid 613-752) fusion proteins were expressed in BL21 cells by induction with 0.1 mM isopropyl-β-D-thiogalactopyranoside (IPTG) at room temperature for 4 hours. The bacterial pellet was resuspended in STE buffer (150 mM NaCl, 10 mM Tris pH 8.0, 1 mM EDTA), containing 5 mM dithiothreitol (DTT), 1 mM phenylmethlsulfonyl fluoride (PMSF) and 1.5% Sarkosyl. The cell suspension was sonicated and centrifuged at 7400 rpm at 4° C. for 30 minutes. The supernatant was isolated and 0.02% Triton-X 100 was added, and the mixture was then incubated with 1 ml 50% slurry of glutathione-Sepharose beads on a rotator at 4° C. for 30 minutes. The beads were spun down at 3000 rpm for 10 minutes, the supernatant was removed, and the beads were suspended in 1 ml cold PBS.
Approximately 5 μg of GST-DRIP205 or GST-RAC3 bound on glutathione-Sepharose beads and 4 μl ^35S-methionine-labeled mPPARγ1 were incubated with the indicated concentrations of AJA, GW347845, or vehicle alone in H buffer (20 mM Hepes [pH 7.7], 75 mM KCl, 0.1 mM EDTA, 2.5 mM MgCl2, 0.05% NP40, 0.1 mM methionine, 1 mM DTT) containing 1 mg/ml bovine serum albumin (BSA) on a rotator at 4° C. overnight. After three washes with cold PBS, the bound protein was eluted in SDS sample buffer and boiled for 10 min before SDS-PAGE and autoradiography. […]

In a further series the target is T2, Gal4-DBD/mPPARγ (Mus musculus, UniProt P37238).
T2 construct: expressed in transfected cells; host or cells: HEK293
T2 sequence (P37238 1-475 isoform P37238-2): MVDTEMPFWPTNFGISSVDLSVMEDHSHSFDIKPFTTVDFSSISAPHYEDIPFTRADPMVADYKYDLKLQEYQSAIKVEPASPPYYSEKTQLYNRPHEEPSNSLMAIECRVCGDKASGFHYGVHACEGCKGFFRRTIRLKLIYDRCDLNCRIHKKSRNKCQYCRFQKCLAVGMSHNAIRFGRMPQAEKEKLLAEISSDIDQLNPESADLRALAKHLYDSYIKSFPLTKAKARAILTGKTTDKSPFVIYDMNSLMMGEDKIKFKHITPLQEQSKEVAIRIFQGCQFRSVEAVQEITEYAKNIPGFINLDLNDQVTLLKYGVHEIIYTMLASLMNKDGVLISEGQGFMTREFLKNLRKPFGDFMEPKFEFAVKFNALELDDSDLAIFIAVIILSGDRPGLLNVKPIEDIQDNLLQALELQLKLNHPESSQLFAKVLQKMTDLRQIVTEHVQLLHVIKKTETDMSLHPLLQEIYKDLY
Description: Gal4-dependent MH100-Luc reporter, Gal4-DBD/mPPARγ. In kind it is cell-based. The conditions noted are these: HEK293 cells. The source says:
The-pCMX-Gal4-mPPARγ1 was constructed by fusing the mPPARγ1 coding sequence to the yeast GAL4 DNA binding domain (amino acid 1-147) in the pCMX vector. The AF-2 helix-truncated mutant of mPPARγ1 (PPARγ ΔAF2) was generated by PCR amplification-to introduce a stop codon and a NheI restriction site after amino acid 489, and then-subcloned into the pCMX vector. The PPRE-TK-LUC, MH100-TK-LUC-and DR1-TK-LUC reporters have been described previously (Forman et al., Cell 83:803-812, 1995; Umesono et al., Cell 65:1255-1266, 1991).
For PPARγ activation assay, HEK293 cells were plated in 12-well cell culture plates and maintained in Dulbecco's modified Eagle's medium (DMEM) supplemented with 10% fetal bovine serum (FBS) at 37° C. under 5% CO2. […] The average normalized luciferase activity was determined via triplicate experiments. […]
To further confirm activation of PPARγ by AJA, and also to determine PPARγ species specificity, the ability of AJA to activate the chimeric Gal4-DBD/PPAR fusion proteins on a Gal4-dependent MH100-Luc reporter was assessed (FIG. 4A). The PPARs were expressed as Gal4 DBD fusion proteins, which bind to the UAS promoter containing 4 copies of a synthetic Gal4 binding site upstream of the minimal thymidine kinase (TK) promoter. […]

The conditions of series [2]: cited from earlier work.

Where “and” joins values, the source holds several entries; their conditions need not be identical. Equal entries are not always repeated.

T1 sequence (Q15648 527-970 partner limits assumed, one chain of several): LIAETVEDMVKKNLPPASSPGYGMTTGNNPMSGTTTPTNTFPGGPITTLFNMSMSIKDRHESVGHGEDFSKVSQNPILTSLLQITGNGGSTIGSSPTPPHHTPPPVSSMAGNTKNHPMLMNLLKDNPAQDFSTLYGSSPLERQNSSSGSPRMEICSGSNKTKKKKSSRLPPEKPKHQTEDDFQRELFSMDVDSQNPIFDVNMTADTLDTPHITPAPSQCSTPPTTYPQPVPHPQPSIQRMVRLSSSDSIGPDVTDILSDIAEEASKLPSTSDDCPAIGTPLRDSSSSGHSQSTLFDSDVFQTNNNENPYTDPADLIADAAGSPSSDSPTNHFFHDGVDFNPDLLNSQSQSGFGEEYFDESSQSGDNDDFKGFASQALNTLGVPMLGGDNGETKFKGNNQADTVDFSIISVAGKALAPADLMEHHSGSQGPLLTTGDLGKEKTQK

The EC50 is the concentration giving half of the maximal effect. As to `CCCCCCC(C)(C)c1cc(O)c2c(c1)OC(C)(C)[C@@H]1CC=C(C(=O)O)C[C@@H]21` [AJA, dimethylheptyl-THC-11-oic acid], the “binding of PPARγ to GST-DRIP205” value in series [1] is recorded as “increased binding”. Also, on Gal4-DBD/mPPARγ (20 μM AJA), the “activation of Gal4-DBD/mPPARγ reporter gene expression” value is “activated the reporter gene expression significantly”. The EC50 at Gal4-DBD/mPPARγ (EC-50 for activation of PPARγ, estimated, 10-60 μM AJA, luciferase activity) is ~13 µM and 13 µM. In series [2] (in vivo), the drug dependence entry is recorded as “did not exhibit drug dependence” and the mutagenesis result is “did not exhibit drug dependence or cause mutagenesis”. Moreover, the ulcerogenicity entry in series [2] (therapeutically relevant doses) is on record as “totally non-ulcerogenic”.
